# Numbering of substitutions follows the chain as printed.
# Columns and labels:
# [1] = biological target: N. gonorrhoeae topoisomerase IV ParC^S87N (Neisseria gonorrhoeae, UniProt P48374, S87N); test: biochemical
# Method: (§1) Some experiments replaced MgCl2 with an equivalent concentration of CaCl2 (10 mM), or 1.5 mM ATP was added to assay mixtures.
# (§2) Reactions were incubated at 37 °C for 30 min with WT and mutant (GyrA^D90N, GyrA^A92T, GyrA^S91F, GyrA^D95G, or GyrA^S91F/D95G) N. gonorrhoeae gyrase, 10 min with WT N. gonorrhoeae topoisomerase IV, and 20 min with mutant (ParC^D86N, ParC^S88P, ParC^S87N, or ParC^E91G) N. gonorrhoeae topoisomerase IV. Enzyme-DNA cleavage complexes were trapped by adding 2 μL of 5% SDS followed by 2 μL of 250 mM EDTA (pH 8.0). Proteinase K was added (2 μL of a 0.8 mg/mL solution), and reaction mixtures were incubated at 45 °C for 30 min to digest the enzyme. Samples were mixed with 2 μL of loading buffer and heated at 45 °C for 2 min prior to electrophoresis in 1% agarose gels in 40 mM Tris-acetate (pH 8.3), and 2 mM EDTA containing 0.5 μg/mL ethidium bromide. DNA bands were visualized by midrange ultraviolet light and quantified using an Alpha Innotech digital imaging system (Protein Simple). Single-stranded DNA cleavage was monitored by the conversion of negatively supercoiled to nicked plasmid molecules.
# [2] = biological target: T1, WT N. gonorrhoeae topoisomerase IV (Neisseria gonorrhoeae, UniProt P48374); test: biochemical
# T1 sequence (P48374 1-768): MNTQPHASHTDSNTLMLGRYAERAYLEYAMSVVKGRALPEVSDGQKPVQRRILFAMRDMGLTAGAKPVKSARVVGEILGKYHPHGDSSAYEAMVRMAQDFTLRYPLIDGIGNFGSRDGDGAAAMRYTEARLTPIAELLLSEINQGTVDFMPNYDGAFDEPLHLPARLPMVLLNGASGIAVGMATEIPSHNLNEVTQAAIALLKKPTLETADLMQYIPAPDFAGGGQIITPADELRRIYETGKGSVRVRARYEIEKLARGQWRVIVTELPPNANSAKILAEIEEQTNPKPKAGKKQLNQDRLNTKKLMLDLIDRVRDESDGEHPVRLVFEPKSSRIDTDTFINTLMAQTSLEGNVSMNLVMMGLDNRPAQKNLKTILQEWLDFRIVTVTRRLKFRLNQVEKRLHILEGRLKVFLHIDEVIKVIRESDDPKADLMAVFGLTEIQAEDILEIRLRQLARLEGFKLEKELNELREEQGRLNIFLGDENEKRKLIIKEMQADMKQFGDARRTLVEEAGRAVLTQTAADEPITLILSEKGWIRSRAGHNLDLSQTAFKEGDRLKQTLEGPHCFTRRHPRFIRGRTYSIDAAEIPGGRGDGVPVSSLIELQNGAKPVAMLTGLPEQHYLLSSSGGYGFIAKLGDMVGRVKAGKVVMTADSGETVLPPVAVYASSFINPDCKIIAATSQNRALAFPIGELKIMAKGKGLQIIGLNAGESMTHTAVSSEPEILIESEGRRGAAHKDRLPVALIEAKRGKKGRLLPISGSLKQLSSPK
# Method: as §1, §2
# [3] = test system: N. gonorrhoeae topoisomerase IV ParC^S87N; test: biochemical; conditions: ParC S87N vs WT
# Method: as §1, §2
# [4] = biological target: N. gonorrhoeae topoisomerase IV ParC^E91G (Neisseria gonorrhoeae, UniProt P48374, E91G); test: biochemical
# Chain of N. gonorrhoeae topoisomerase IV ParC^E91G (P48374 whole entry E91G): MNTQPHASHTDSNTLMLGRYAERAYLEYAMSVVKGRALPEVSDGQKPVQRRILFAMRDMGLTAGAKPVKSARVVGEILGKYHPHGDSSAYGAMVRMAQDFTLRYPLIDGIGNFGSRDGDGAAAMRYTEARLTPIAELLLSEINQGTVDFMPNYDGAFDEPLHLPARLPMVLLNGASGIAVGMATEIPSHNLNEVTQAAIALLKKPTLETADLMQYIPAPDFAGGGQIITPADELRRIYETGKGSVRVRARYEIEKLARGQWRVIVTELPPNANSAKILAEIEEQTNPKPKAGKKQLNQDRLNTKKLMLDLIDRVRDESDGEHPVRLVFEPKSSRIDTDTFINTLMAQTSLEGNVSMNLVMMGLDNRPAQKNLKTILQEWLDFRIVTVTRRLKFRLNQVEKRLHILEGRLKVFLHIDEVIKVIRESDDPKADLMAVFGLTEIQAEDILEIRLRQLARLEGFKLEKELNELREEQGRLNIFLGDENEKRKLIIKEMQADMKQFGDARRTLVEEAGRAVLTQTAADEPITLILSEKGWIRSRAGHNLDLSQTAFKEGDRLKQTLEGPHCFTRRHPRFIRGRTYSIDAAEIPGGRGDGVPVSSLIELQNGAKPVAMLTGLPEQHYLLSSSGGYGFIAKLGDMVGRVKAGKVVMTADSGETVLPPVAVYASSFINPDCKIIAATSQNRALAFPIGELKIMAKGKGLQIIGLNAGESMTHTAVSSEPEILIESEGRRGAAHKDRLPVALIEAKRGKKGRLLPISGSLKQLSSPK
# Method: as §1, §2
# [5] = biological target: T2, N. gonorrhoeae topoisomerase IV ParC^S88P (Neisseria gonorrhoeae, UniProt P48374, S88P); test: biochemical
# T2 sequence (P48374 1-768 S88P): T1 sequence (P48374 1-768) with S88P
# Method: as §1, §2
# [6] = biological target: T3, N. gonorrhoeae gyrase GyrA^S91F (Neisseria gonorrhoeae, UniProt P48371, S91F); test: DNA cleavage assay, GyrA^S91F gyrase; type: biochemical
# T3 construct: His; made in house
# T3 sequence (P48371 whole entry S91F): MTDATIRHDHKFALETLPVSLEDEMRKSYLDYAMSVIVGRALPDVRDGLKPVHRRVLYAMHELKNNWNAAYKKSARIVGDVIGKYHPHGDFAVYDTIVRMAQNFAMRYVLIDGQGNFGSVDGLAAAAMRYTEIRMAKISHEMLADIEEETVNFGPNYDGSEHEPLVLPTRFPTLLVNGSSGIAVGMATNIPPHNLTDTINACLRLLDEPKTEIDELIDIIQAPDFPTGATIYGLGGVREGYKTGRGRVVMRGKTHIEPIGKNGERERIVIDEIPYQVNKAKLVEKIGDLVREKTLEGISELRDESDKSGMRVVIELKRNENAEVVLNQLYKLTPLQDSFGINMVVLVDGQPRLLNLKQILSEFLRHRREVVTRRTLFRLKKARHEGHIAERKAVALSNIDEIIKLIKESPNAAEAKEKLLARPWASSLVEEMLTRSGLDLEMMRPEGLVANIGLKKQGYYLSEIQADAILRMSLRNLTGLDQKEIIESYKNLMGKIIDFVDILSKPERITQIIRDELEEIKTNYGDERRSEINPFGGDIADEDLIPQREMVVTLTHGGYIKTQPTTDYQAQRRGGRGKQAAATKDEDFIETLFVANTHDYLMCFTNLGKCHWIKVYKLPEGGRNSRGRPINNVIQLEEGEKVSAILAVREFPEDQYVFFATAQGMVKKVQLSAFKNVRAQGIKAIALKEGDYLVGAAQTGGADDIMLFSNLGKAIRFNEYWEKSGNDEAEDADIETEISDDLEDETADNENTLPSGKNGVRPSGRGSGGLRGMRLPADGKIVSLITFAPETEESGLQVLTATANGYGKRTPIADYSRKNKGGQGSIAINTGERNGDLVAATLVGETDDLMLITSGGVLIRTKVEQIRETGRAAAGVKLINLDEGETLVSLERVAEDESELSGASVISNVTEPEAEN
# T3 sequence (P22118 whole entry partner): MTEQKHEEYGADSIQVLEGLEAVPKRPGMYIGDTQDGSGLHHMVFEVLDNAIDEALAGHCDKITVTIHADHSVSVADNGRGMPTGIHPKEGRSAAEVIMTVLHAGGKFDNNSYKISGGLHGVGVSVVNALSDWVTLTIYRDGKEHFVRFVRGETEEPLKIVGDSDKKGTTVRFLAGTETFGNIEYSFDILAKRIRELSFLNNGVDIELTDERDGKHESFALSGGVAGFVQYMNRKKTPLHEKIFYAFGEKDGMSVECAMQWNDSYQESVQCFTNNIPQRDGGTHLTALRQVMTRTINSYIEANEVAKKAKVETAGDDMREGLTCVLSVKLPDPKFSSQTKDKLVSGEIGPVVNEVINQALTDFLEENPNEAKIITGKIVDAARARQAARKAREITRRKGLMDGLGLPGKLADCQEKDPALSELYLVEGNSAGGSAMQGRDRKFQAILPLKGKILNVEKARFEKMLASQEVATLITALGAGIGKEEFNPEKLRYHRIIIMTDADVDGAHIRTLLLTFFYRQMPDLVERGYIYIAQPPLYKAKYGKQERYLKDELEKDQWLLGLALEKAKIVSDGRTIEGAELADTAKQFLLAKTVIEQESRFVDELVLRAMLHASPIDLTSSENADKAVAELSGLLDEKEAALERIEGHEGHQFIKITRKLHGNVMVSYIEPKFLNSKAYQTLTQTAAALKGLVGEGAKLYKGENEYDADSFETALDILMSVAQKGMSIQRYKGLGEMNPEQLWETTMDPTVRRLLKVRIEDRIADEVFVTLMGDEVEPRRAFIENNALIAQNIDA
# Method: as §1, §2
# [7] = biological target: T4, N. gonorrhoeae gyrase GyrA^D95G (Neisseria gonorrhoeae, UniProt P48371, D95G); test: DNA cleavage assay, GyrA^D95G gyrase; type: biochemical
# T4 construct: His; made in house
# T4 sequence (P48371 whole entry D95G): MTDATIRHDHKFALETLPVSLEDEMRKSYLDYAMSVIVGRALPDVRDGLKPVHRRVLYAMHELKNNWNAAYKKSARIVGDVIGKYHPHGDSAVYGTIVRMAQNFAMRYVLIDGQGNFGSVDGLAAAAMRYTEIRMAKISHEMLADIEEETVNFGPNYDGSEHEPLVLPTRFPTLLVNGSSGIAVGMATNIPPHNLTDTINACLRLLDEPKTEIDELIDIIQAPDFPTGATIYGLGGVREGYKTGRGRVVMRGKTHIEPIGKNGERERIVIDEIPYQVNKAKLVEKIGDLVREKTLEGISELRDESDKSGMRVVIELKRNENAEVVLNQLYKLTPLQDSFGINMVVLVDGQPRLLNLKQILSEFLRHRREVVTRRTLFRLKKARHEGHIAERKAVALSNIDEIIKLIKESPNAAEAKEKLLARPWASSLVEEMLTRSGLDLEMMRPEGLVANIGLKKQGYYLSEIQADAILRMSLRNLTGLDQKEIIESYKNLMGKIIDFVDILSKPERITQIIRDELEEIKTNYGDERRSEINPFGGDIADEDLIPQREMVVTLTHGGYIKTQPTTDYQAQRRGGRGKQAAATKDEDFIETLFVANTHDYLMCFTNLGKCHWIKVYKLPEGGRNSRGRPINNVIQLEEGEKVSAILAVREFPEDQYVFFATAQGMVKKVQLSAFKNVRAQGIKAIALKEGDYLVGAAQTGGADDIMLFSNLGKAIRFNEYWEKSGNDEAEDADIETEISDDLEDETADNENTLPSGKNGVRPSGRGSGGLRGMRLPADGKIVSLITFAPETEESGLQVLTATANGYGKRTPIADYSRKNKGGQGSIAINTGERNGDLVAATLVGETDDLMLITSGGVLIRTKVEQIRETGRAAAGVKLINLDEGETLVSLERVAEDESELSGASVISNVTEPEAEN
# T4 sequence (P22118 whole entry partner): as the sequence (P22118 whole entry partner) above
# Method: as §1, §2
# [8] = biological target: T5, N. gonorrhoeae gyrase GyrA^D90N (Neisseria gonorrhoeae, UniProt P48371, D90N); test: DNA cleavage assay, GyrA^D90N gyrase; type: biochemical
# T5 construct: His; made in house
# Method: as §1, §2
# [9] = test system: N. gonorrhoeae FA1090E-3 (GyrA^A92T/ParC^D86N); test: MIC by agar dilution, GyrA^A92T/ParC^D86N strain; type: cell-based, Neisseria gonorrhoeae
# Method: This strain was designated FA1090E-3 (GyrA^A92T/ParC^D86N).
# Minimum inhibitory concentration (MIC) of test compounds was determined by an agar dilution method, the reference testing method for N. gonorrhoeae according to the standards of the Clinical and Laboratory Standards Institute and the CDC.
# Chain of N. gonorrhoeae topoisomerase IV ParC^S87N (Neisseria gonorrhoeae, UniProt P48374, S87N) (P48374 whole entry S87N): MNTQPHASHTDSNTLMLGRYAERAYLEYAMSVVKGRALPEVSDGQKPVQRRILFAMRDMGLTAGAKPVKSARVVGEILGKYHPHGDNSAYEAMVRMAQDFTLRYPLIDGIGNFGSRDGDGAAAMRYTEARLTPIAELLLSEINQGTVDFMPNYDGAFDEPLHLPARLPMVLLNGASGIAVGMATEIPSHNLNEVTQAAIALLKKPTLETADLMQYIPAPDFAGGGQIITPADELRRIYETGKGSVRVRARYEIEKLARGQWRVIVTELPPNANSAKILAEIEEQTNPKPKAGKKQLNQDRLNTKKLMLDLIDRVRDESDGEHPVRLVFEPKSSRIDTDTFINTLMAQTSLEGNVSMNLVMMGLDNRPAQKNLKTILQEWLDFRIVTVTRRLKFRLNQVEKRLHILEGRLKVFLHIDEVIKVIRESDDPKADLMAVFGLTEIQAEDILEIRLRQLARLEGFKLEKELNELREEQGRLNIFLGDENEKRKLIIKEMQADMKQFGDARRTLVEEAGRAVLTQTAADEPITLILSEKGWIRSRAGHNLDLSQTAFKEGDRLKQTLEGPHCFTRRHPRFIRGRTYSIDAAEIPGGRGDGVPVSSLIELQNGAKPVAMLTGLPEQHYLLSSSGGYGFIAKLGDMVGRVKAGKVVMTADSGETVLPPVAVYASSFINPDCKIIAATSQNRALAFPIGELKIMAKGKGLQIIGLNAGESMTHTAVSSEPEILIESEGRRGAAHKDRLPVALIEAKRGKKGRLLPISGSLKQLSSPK
smiles,measurement,setting,value
O=c1ccc2ncc(=O)n3c2n1C[C@H]3CN1CCC(NCc2cc3c(cn2)OCCC3)CC1 [gepotidacin],EC50,[1],600 nM
same,EC50,[2],600 ± 200 nM
same,effect of ATP on potency and maximal DNA cleavage,"[2]; WT topoisomerase IV, 1.5 mM ATP",little effect
same,effect on double-stranded DNA breaks,"[2]; WT topoisomerase IV, Mg2+ replaced with Ca2+",clear suppression
same,"Adj-Max Cleavage, single-stranded DNA breaks","[2]; WT topoisomerase IV, adjusted for baseline cleavage",~42.8%
same,additional enhancement of double-stranded DNA breaks above baseline,"[2]; WT topoisomerase IV, up to 200 μM gepotidacin, up to 180 min",not observed
same,fold decrease of Adj-Max Cleavage vs WT,[3],~4.2 fold
same,EC50,[4],200 nM
same,EC50,[5],200 nM
same,"Adj-Max Cleavage, single-stranded DNA breaks",[6],5.5%
same,EC50,"[6]; GyrA S91F gyrase, read-out: CC50, single-stranded DNA cleavage",17200 nM
same,fold decrease of adjusted maximal DNA cleavage vs WT,[6]; GyrA S91F vs WT,~3.1 fold
same,"Adj-Max Cleavage, single-stranded DNA breaks",[7],17.9%
same,EC50,"[7]; GyrA D95G gyrase, read-out: CC50, single-stranded DNA cleavage",1300 nM
same,single-stranded DNA cleavage compared with WT gyrase,[7]; GyrA D95G vs WT,nearly indistinguishable
same,"Adj-Max Cleavage, single-stranded DNA breaks",[8],1.7%
same,increase in gepotidacin-induced DNA cleavage,[8]; GyrA D90N gyrase,essentially no increase
same,MIC,[9]; Neisseria gonorrhoeae,8 µg/mL
same,fold-change in MIC from WT/WT parental strain,[9]; strain FA1090E-3 vs FA1090E,16 fold

# Reference: publication PMC12624743 (ACS Infectious Diseases, 2025)
